Assay results reported in patent US20250136579A1, “SALTS AND FREE BASES OF BIFUNCTIONAL COMPOUND AND POLYMORPH FORMS THEREOF” (NURIX THERAPEUTICS, INC., priority 2023, published 2025).
Read-outs that look alike come from different tables or passages of the source.

Assays:
Type in all cases: physicochemical
[1] = dynamic vapor sorption (DVS) analysis, TA Instruments Q5000, 5 to 95% RH
Experimental: For Fumarate Salt Form A, Dynamic vapor sorption (DVS) analysis was carried out using a TA Instruments Q5000 Dynamic Vapor Sorption analyser. The instrument was calibrated with standard weights and a sodium bromide standard for humidity. Approximately 10-25 mg of sample was loaded into a metal coated quartz pan for analysis. The sample was analysed at 25° C. with a maximum equilibration time of one hour in 10% relative humidity (RH) steps from 5 to 95% RH (adsorption cycle) and from 95 to 5% RH (desorption cycle). The movement from one step to the next occurred either after satisfying the equilibrium criterion of 0.01% weight change, or when the equilibrium criterion was not met after one hour. The percent weight change values were then calculated.

[2] = kinetic solubility at pH 7.4; details: pH 7.4, aqueous buffer, kinetic from dmso stock
Excerpt: (§1) The free base compound of Formula (I) was used as a starting material. The compound of Formula (I) (MW 806.973 g/mol) is a chimeric targeting molecule that has two ligands connected by a linker.

[3] = estimated solubility by adding test solvent in aliquots to weighed solid, visual inspection; details: thermodynamic from solid, read-out: Solubility
Experimental: Solubilities of the compound of Formula (I), free base, in a few solvents were estimated. The experiments were carried out by adding the test solvent in aliquots to weighed portions of solid. Whether dissolution had occurred was judged by visual inspection after addition of each solvent aliquot. Solubility numbers were calculated by dividing the weight of the sample by total amount of solvent used to dissolve the sample. The actual solubilities may be greater than the numbers calculated because of the use of solvent aliquots that were too large or because of slow dissolution rates. […] The solubility number is expressed as “greater than or equal to” if dissolution occurred on addition of the first solvent aliquot.
Solubilities of Fumarate Salt Form A are shown in Tables 8 and 9, in selected solvents and aqueous binary mixtures.
Solubilities of the compound of Formula (I), Fumarate Salt Form A, are shown in Tables 15 and 16, in selected solvents and aqueous binary mixtures.

[4] = pKa (base) of the free base compound of Formula (I)
Excerpt: as §1

CN1CCN([C@@H]2CCCN(c3cnc(C(N)=O)c(Nc4ccc(C5CCN(CC6CCN(c7ccc(C(=O)N[C@H]8CCC(=O)NC8=O)nc7)CC6)CC5)cc4)n3)C2)C1=O [free base compound of Formula (I)]
DVS: weight gain up to 95% RH ([1]; 25° C.): approximately 7%
DVS: hygroscopicity ([1]; 25° C., 5 to 95% RH): moderately hygroscopic
Post-DVS XRPD ([1]; material after sorption/desorption cycle): unchanged
solubility kinetic [2]: 10 µM
solubility ([3]; aqueous with cosolvent or surfactant or cyclodextrin, 1,4-dioxane/H2O (60/40), aw 1.0, at 60° C.): 2000 µg/mL
solubility ([3]; aqueous with cosolvent or surfactant or cyclodextrin, 1-pentanol/H2O (saturated) (80:20 - 2 phase system), at 60° C.): < 3000 µg/mL
solubility ([3]; aqueous with cosolvent or surfactant or cyclodextrin, 2-propanol/H2O (80/20), aw 0.9, at 60° C.): < 2000 µg/mL
solubility ([3]; aqueous with cosolvent or surfactant or cyclodextrin, acetone/H2O (70/30), aw 0.85, at 60° C.): < 2000 µg/mL
solubility ([3]; aqueous with cosolvent or surfactant or cyclodextrin, acetonitrile/H2O (45/55), aw 0.9, at 60° C.): < 2000 µg/mL
solubility ([3]; aqueous with cosolvent or surfactant or cyclodextrin, ethanol/H2O (70/30), aw 0.8, at 60° C.): < 2000 µg/mL
solubility ([3]; aqueous with cosolvent or surfactant or cyclodextrin, methanol/H2O (50/50), aw 0.75, at 60° C.): < 2000 µg/mL
solubility ([3]; aqueous with cosolvent or surfactant or cyclodextrin, tetrahydrofuran/H2O (80/20), aw 1, at RT): 5000 µg/mL
solubility ([3]; organic solvent or mixture, 1,2-dichloroethane, at 45° C.): 2000 µg/mL
solubility ([3]; organic solvent or mixture, 1,4-dioxane, solubility without temperature): 6000 µg/mL
solubility ([3]; organic solvent or mixture, 2-methyltetrahydrofuran (2-MeTHF), solubility without temperature): < 1000 µg/mL
solubility ([3]; organic solvent or mixture, 2-propanol (2-PrOH), solubility without temperature): < 1000 µg/mL
solubility ([3]; organic solvent or mixture, acetone, solubility without temperature): < 1000 µg/mL
solubility ([3]; organic solvent or mixture, acetonitrile (ACN), solubility without temperature): < 1000 µg/mL
solubility ([3]; organic solvent or mixture, anisole, at 60° C.): < 1000 µg/mL
solubility ([3]; organic solvent or mixture, cyclohexane, at 60° C.): < 2000 µg/mL
solubility ([3]; organic solvent or mixture, dichloromethane (DCM), solubility without temperature): 17000 µg/mL
solubility ([3]; organic solvent or mixture, diethyl ether (Et2O), solubility without temperature): < 1000 µg/mL
solubility ([3]; organic solvent or mixture, dimethylformamide (DMF), solubility without temperature): 21000 µg/mL
solubility ([3]; organic solvent or mixture, dimethylsulfoxide (DMSO), solubility without temperature): 9000 µg/mL
solubility ([3]; organic solvent or mixture, ethanol (EtOH), solubility without temperature): < 1000 µg/mL
solubility ([3]; organic solvent or mixture, ethyl acetate (EtOAc), solubility without temperature): < 1000 µg/mL
solubility ([3]; organic solvent or mixture, heptane, at 60° C.): < 2000 µg/mL
solubility ([3]; organic solvent or mixture, methanol (MeOH), solubility without temperature): < 1000 µg/mL
solubility ([3]; organic solvent or mixture, methyl acetate (MeOAc), at 60° C.): < 1000 µg/mL
solubility ([3]; organic solvent or mixture, methyl ethyl ketone (MEK), solubility without temperature): < 1000 µg/mL
solubility ([3]; organic solvent or mixture, methyl tert-butyl ether (MTBE), at 60° C.): < 1000 µg/mL
solubility ([3]; organic solvent or mixture, tetrahydrofuran (THF), solubility without temperature): 9000 µg/mL
solubility ([3]; organic solvent or mixture, toluene, at 60° C.): < 2000 µg/mL
solubility ([3]; water, solubility without temperature): < 1000 µg/mL
pKa [4]: ~6.5
